Experimental data published in patent US20070219161A1, “Preparation Process Of Oligoglycosaminoglycan, And Reducing End Glucuronic Acid Type Oligochondroitin Sulfate And Pharmaceutical Composition Comprising The Same” (priority 2004, published 2007).

Molecular target: T1, CD44 (Homo sapiens, UniProt P16070)
T1 construct: endogenous in cells
Test: CD44 shedding induction by synthetic oligosaccharide in a cancer cell
Type: cell-based
Details: electrophoresis (FIG. 9) and CD44 shedding index with the state without stimulation set to 1 (FIG. 10)
Description: FIG. 8 is a flowchart showing the outline of the test method performed in Example 4.
FIG. 9 is a copy of the electrophoresis photograph in which the electrophoresis result of the test performed in Example 4 is shown.
About the compound of the formula (20) and (21) obtained in Example 1, a CD44 shedding induction ability in a cancer cell was evaluated according to the test method shown in FIG. 8.

T1 sequence (P16070 21-742, species assumed): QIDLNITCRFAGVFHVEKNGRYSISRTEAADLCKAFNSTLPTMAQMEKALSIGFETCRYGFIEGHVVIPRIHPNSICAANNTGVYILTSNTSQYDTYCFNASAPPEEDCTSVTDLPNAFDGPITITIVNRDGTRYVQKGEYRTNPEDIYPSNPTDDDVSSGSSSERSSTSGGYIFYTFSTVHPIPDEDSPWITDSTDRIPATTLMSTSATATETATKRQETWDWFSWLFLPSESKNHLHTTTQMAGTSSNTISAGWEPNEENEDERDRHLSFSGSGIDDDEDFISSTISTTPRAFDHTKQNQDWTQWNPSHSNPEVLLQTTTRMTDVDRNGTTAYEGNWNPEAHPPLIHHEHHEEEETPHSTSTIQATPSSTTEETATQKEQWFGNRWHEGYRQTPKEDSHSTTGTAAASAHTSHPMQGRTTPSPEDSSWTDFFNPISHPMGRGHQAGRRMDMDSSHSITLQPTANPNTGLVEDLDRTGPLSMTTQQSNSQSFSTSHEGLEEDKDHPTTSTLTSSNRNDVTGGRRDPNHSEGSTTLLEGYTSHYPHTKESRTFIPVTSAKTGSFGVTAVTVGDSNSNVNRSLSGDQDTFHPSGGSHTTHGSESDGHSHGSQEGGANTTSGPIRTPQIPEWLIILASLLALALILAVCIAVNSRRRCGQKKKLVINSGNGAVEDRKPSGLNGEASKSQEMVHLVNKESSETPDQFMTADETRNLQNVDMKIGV

Substance	CD44 shedding induction ability
β-D-GalNAc-(1->[4]-β-D-GlcA-(1->3)-β-D-GalNAc-(1->)24)-β-D-GlcA-(1->OMP [compound of the formula (20)]	induced the shedding of a CD44
β-D-GalNAc(4,6-di-OSO3Na)-(1->[4]-β-D-GlcA-(1->3)-β-D-GalNAc(4,6-di-OSO3Na)-(1->24)-β-D-GlcA-(1->OMP [compound of the formula (21)]	induced more strongly
